Test system: alanine-induced hyperglycemic mice
Test: Hypoglycemic activity in alanine-induced hyperglycemic mice (serum glucose lowering)
Assay type: in vivo
Conditions: for percent lowering of serum glucose as compared to controls: fasted male Swiss-Webster mice, 10 m moles/kg L-alanine i.p. 15 min later, serum glucose 60 min after compound, 100% = lowering to fasting glucose level; for ED50: Mus musculus, ip, 1 h, intraperitoneal, lowering of serum glucose in alanine-induced hyperglycemic fasted male Swiss-Webster mice, read-out: ED50 (effective dose)
Description: Alanine is the most glucogenic of the amino acids and also stimulates gluconeogensis in normal animals. Animals suffering from diabetes show an exaggerated hyperglycemic response to a protein or amino acid meal, therefore the hyperglycemic state induced by alanine closely parallels the response of a diabetic mammal.
Fifteen minutes later the same mice were injected intraperitoneally with 10 m moles/kg body weight of L-alanine. […] The control consisted of both fasted mice and mice injected with alanine only. The results are expressed as percent lowering of serum glucose from the alanine induced hyperglycemic level to the fasted control glucose level, i.e. lowering to the fasting glucose level is 100% lowering.

[1] = Dosage Level 7.5 mg/kg intraperitoneal
[2] = Dosage Level 15 mg/kg intraperitoneal
[3] = Dosage Level 30 mg/kg intraperitoneal
[4] = Dosage Level 60 mg/kg intraperitoneal

O=C([O-])c1ccc(NCC#Cc2ccccc2)cc1.[Na+] [Example 2, 4-((3-phenyl-2-propynyl)-amino)benzoic acid-sodium salt]
percent lowering of serum glucose as compared to controls [1]: 44% | percent lowering of serum glucose as compared to controls [2]: 69% | percent lowering of serum glucose as compared to controls [3]: 114% | percent lowering of serum glucose as compared to controls [4]: 139% | hypoglycemic activity (in words) (summary of Table I, lowering the amount of glucose in the serum of the test animals): most active

O=C(O)c1ccc(NCC#Cc2ccc(F)cc2)cc1 [Example 3, 4((3-(4-fluoro)phenyl-2-propynyl)amino)benzoic acid]
percent lowering of serum glucose as compared to controls [1]: 2% | percent lowering of serum glucose as compared to controls [2]: 66% | percent lowering of serum glucose as compared to controls [3]: 91% | percent lowering of serum glucose as compared to controls [4]: 172% | ED50: 18 mg/kg

Cc1ccc(C#CCNc2ccc(C(=O)O)cc2)cc1 [Example 5, 4-((3-(4-Methyl)phenyl-2-propynyl)amino)benzoic acid]
percent lowering of serum glucose as compared to controls [1]: 9% | percent lowering of serum glucose as compared to controls [2]: 15% | percent lowering of serum glucose as compared to controls [3]: 118% | percent lowering of serum glucose as compared to controls [4]: 76% | ED50: 21 mg/kg

O=C(O)c1ccc(NCC#Cc2ccccc2)cc1 [Example 1, 4-((3-phenyl-2-propynyl)-amino)benzoic acid]
percent lowering of serum glucose as compared to controls [1]: 36% | percent lowering of serum glucose as compared to controls [2]: 79% | percent lowering of serum glucose as compared to controls [3]: 98% | percent lowering of serum glucose as compared to controls [4]: 132% | ED50: 8 mg/kg

O=C(O)c1ccc(NCC#Cc2ccc(Cl)cc2)cc1 [Example 4, 4-((3-(4-Chloro)phenyl-2-propynyl)amino)-ben zoic acid]
percent lowering of serum glucose as compared to controls [4]: 39%
